These results are taken from US20240398812A1 (Caraway Therapeutics, Inc., priority 2021, published 2024).

Common to all, as to type: cell-based
Holding throughout (conditions): Table 3, compounds 101-177

One assay deals with T1, TRPML2 (Homo sapiens, UniProt Q8IZK6).
T1 construct: expressed in transfected cells
T1 sequence (Q8IZK6 1-566): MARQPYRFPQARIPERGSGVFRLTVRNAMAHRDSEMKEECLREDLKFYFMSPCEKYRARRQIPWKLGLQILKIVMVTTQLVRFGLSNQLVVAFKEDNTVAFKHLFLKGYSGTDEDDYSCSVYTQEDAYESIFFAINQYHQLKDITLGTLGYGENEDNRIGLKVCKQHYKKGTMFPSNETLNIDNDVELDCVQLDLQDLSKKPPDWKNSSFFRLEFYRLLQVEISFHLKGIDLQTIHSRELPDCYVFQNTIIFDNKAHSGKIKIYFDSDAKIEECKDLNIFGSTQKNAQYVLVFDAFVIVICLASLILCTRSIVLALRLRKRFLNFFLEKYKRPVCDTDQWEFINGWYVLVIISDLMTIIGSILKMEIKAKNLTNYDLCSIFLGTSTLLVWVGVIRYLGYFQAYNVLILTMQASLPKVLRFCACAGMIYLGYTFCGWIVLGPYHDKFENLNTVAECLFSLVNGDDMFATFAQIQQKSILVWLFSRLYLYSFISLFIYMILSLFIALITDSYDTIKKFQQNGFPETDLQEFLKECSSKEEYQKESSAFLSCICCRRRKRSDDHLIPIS
In words: Fluorescent TRPML2 assay (as for TRPML1). How it is done:
HEK-293 Trex cells were stably transfected with a construct consisting of the human coding sequence for TRPML1 cloned into the tet-inducible plasmid pCDNA5 T/O. Mutations were introduced into the TRPML1 sequence to facilitate expression on the cell surface (Silvia Vergarajauregui, Rosa Puertollano Traffic. 2006 March; 7 (3): 337-353). Briefly, the cells are cultured in 150 mm round tissue culture dishes containing 20 mL of media. The day before the assay the cells are rinsed with DPBS —Ca—Mg and then treated briefly with Trypsin-EDTA. The Trypsin-EDTA is diluted with growth media, and cells are counted. 38×10^6 cells are re-plated into 150 mm round tissue culture dishes in media containing 0.5 ug/mL doxycycline to induce expression of hTRPML1.
The day of the experiment cells are lifted from the plates as above and collected by centrifugation. The cells are then suspended in dye loading buffer consisting of Ringer's solution supplemented with 0.1% Pluronic Acid and 1 micromolar Fluo4-AM dye. Cells are loaded for ˜60 minutes in the dark with occasional mixing. The cells are collected by centrifugation, the loading media aspirated, and the cells resuspended in 25 mL Ringer's solution and incubated ˜60 minutes in the dark. The cells are again collected by centrifugation, rinsed in Ringer's Solution and resuspended to 0.2×10^6 cells/mL in modified Ringer's solution containing 10 mM calcium.
Compounds are dissolved to a concentration of 10 millimolar with DMSO. Compound plates are created by dispensing compounds into 384 well black wall clear bottom plates (Greiner 781091). Positive and negative controls are included on each plate. Typically, different amounts of each compound are tested ranging from 100 nanoMoles (20 micromolar final concentration) decreasing in half-log steps to 31 picoMoles (6 nanomolar final concentration). Each concentration is typically tested in triplicate.
50 microliters of dye-loaded cells are dispensed into each well of the compound assay plate created above. The fluorescence in each well is then determined with an excitation wavelength of 480 nm and an emission wavelength of 540 nm using either a Molecular Devices SpectraMax multimode plate reader or a Hamamatsu FDSS/uCell plate imager.
The resulting fluorescence for each well is exported as an ascii file and loaded into our LIMS for analysis. The percent activity of each compound at each concentration is determined by comparison to the positive and negative control wells included in each plate.
Assays for TRPML2 and TRPML3 were performed as above for TRPML1, by substituting the appropriate TRPML2 or TRPML3 subtype for the TRPML1.
EC50 values were calculated using a non-linear regression of Prism. In the table, “A” indicates an EC50 of less than 100 nM, “B” indicates an EC50 range from 100 nM to 500 nM; “C” indicates an EC50 range from 500 nM to 2 μM; and “D” indicates an EC50 greater than 2 μM.

For another assay, the target named is human TRPML1 (Homo sapiens, UniProt Q9GZU1). In words: Fluorescent TRPML1 assay (Fluo4-AM calcium fluorescence, HEK-293 Trex cells). Put shortly:
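Tet-inducible HEK-293 Trex cells stably expressing surface-targeted mutant human TRPML1, induced with 0.5 ug/mL doxycycline overnight, loaded with Fluo4-AM and suspended in Ringer's with 10 mM calcium. Compounds tested from 20 μM to 6 nM final, half-log steps, in triplicate; fluorescence (ex 480/em 540) normalised to plate controls, EC50 by non-linear regression.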

The target of a further assay is T2, TRPML3 (Homo sapiens, UniProt Q8TDD5).
T2 construct: expressed in transfected cells
T2 sequence (Q8TDD5 1-553): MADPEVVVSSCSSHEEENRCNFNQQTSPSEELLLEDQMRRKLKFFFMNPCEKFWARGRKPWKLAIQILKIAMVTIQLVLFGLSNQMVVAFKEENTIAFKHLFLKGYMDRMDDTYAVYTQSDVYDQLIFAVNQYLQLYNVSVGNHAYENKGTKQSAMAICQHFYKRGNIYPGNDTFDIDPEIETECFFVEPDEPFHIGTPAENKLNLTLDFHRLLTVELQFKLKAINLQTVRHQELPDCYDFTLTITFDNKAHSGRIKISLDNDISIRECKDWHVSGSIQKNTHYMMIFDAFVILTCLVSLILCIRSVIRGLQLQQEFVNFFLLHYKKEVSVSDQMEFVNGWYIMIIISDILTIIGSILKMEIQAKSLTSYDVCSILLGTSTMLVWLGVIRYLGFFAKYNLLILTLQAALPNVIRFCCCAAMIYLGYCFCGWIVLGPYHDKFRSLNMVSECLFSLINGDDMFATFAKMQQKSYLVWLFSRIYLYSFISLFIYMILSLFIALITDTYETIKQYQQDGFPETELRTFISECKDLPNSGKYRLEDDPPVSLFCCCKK
The experiment in a line: Fluorescent TRPML3 assay (as for TRPML1). In a few lines:
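HEK-293 Trex cells with tet-inducible (0.5 ug/mL doxycycline, overnight) surface-targeted mutant channel, Fluo4-AM loaded, suspended in Ringer's with 10 mM calcium. Compounds tested 20 µM to 6 nM final, half-log steps, triplicate; fluorescence at ex 480/em 540 nm. EC50 by non-linear regression of percent activity versus plate controls.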

Chain of human TRPML1 (Q9GZU1 whole entry L15A/L16A/L577A/L578A, form open): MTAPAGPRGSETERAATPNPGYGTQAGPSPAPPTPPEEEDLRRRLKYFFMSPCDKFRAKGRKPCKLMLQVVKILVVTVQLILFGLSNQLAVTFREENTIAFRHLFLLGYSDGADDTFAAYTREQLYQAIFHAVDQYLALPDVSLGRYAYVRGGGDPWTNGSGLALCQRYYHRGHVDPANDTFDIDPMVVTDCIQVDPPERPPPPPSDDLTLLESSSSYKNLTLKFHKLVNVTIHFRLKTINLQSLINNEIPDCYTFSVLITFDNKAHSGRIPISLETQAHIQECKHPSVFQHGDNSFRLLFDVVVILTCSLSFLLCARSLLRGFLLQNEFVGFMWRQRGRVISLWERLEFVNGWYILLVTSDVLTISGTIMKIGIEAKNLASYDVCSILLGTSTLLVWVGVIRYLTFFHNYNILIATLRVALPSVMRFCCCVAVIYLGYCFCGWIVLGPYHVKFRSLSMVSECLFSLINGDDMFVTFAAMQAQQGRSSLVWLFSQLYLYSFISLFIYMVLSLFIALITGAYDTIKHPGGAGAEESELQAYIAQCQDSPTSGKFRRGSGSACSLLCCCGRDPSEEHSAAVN

For the compound `C[C@H]1CN(C(=O)CC(C)(C)C(F)(F)F)CCN1c1ncnc2c1c(-c1ccccc1F)cn2-c1cc(C#N)ccn1` [Compound 140, (S)-2-(5-(2-fluorophenyl)-4-(2-methyl-4-(4,4,4-trifluoro-3,3-dimethylbutanoyl)piperazin-1-yl)-7H-pyrrolo[2,3-d]pyrimidin-7-yl)isonicotinonitrile], the EC50 at TRPML2, at human TRPML1 and on TRPML3 was below 100 nM throughout.
As to `C[C@H]1CN(C(=O)CC(C)(C)C(F)(F)F)CCN1c1ncnc2c1c(C1CC1)cn2-c1cc(C#N)ccn1` [Compound 141, (S)-2-(5-cyclopropyl-4-(2-methyl-4-(4,4,4-trifluoro-3,3-dimethylbutanoyl)piperazin-1-yl)-7H-pyrrolo[2,3-d]pyrimidin-7-yl)isonicotinonitrile], the concentration giving a half-maximal response (EC50) at TRPML2 was 100 to 500 nM; on human TRPML1, below 100 nM; at TRPML3, below 100 nM.
On to `Cc1cc(C#N)cc(-n2cc(-c3ccccc3F)c3c(N4CCN(C(=O)C(C)C)C[C@@H]4C)ncnc32)n1` [Compound 143, (S)-2-(5-(2-fluorophenyl)-4-(4-isobutyryl-2-methylpiperazin-1-yl)-7H-pyrrolo[2,3-d]pyrimidin-7-yl)-6-methylisonicotinonitrile], for which the EC50 at TRPML2, at human TRPML1 and at TRPML3 was 100 to 500 nM each time.
As to `CC(C)C(=O)N1CCN(c2ncnc3c2c(N2CCCC2)cn3-c2cc(C#N)ccn2)[C@@H](C)C1` [Compound 144, (S)-2-(4-(4-isobutyryl-2-methylpiperazin-1-yl)-5-(pyrrolidin-1-yl)-7H-pyrrolo[2,3-d]pyrimidin-7-yl)isonicotinonitrile], the EC50 at TRPML2 was 100 to 500 nM; on human TRPML1, below 100 nM; on TRPML3, 100 to 500 nM.
As for `CC(C)C(=O)N1CCN(c2ncnc3c2c(-c2ccccc2F)cn3-c2cc(C#N)n(C)n2)[C@@H](C)C1` [Compound 146, (S)-3-(5-(2-fluorophenyl)-4-(4-isobutyryl-2-methylpiperazin-1-yl)-7H-pyrrolo[2,3-d]pyrimidin-7-yl)-1-methyl-1H-pyrazole-5-carbonitrile], the EC50 on TRPML2 fell in the range of 500 to 2000 nM; at human TRPML1 it was 100 to 500 nM; at TRPML3 it was 100 to 500 nM.
Turning to `CC(C)C(=O)N1CCN(c2ncnc3c2c(-c2ccccc2F)cn3-c2cc(C#N)ccn2)C(C)(C)C1` [Compound 149, 2-(5-(2-fluorophenyl)-4-(4-isobutyryl-2,2-dimethylpiperazin-1-yl)-7H-pyrrolo[2,3-d]pyrimidin-7-yl)isonicotinonitrile], the EC50 on TRPML2, at human TRPML1 and on TRPML3 was below 100 nM each time.
`C[C@@H]1CN(c2ncnc3c2c(C2CC2)cn3-c2cc(C#N)ccn2)[C@@H](C)CN1C(=O)CC(C)(C)C` [Compound 153, 2-(5-cyclopropyl-4-((2S,5R)-4-(3,3-dimethylbutanoyl)-2,5-dimethylpiperazin-1-yl)-7H-pyrrolo[2,3-d]pyrimidin-7-yl)isonicotinonitrile]: the EC50 on TRPML2 is 500 to 2000 nM; at human TRPML1, below 100 nM; at TRPML3 it was below 100 nM.
As to `CC(C)CC(=O)N1C[C@H](C)N(c2ncnc3c2c(C2CC2)cn3-c2cc(C#N)ccn2)C[C@H]1C` [Compound 154], the EC50 is above 2000 nM on TRPML2, 100 to 500 nM on human TRPML1 and below 100 nM at TRPML3.
Regarding `CC(C)C(=O)N1CCN(c2ncnc3c2c(-c2ccccc2F)cn3-c2cc(C#N)ccn2)C2(CC2)C1` [Compound 155, 2-(5-(2-fluorophenyl)-4-(7-isobutyryl-4,7-diazaspiro[2.5]octan-4-yl)-7H-pyrrolo[2,3-d]pyrimidin-7-yl)isonicotinonitrile], the figures for the EC50 on TRPML2, at human TRPML1 and at TRPML3 were 100 to 500 nM, below 100 nM and below 100 nM, respectively.

The EC50 is the concentration that produces a half-maximal response.
